Results on 1 compound are retold here after patent US11919886B2, “4,9-dioxo-4,9-dihydronaphtho[2,3-B]furan-3-carboxamide derivatives and uses thereof for treating proliferative diseases and infectious diseases” (Academia Sinica, priority 2016, dated 2024).

Values after ≈ are worked out from the molar mass of the structure shown. Like-named read-outs stand apart in the source and are kept apart here.

For data set [1], the system named is A549 (adenocarcinomic human alveolar basal epithelial cells). Description: SRB cytotoxicity assay, A549. To be noted: A549, 72 h.
Another data set deals with H1975 cells. Description: Double thymidine block, S phase progression by flow cytometry. Format: cell-based, human. Conditions: H1975, release from double thymidine block. As to the method:
To evaluate the effects of compound Ion a single round of DNA replication in a cell cycle, H1975 cells were synchronized using a double thymidine block followed by release with DMSO or compound 1-containing medium for 2 to 14 hours. Exemplary results are shown in Panel (C) of FIG. 2. H1975 cells were grown to 60-70% confluence. Then, 2 mM thymidine (Sigma) was added to the cells and incubated for 17 hours. The cells were then washed, and fresh serum-containing medium was added. After 10 hours, thymidine was added again, and the cells were incubated for 17 hours; the cells were then washed with PBS, replaced with fresh serum-containing medium, and the data were collected at the indicated time points. Through flow cytometry analysis, the control cells were observed as synchronized in the G0-G1 phase from 0 hours, increased in the S phase from 4 to 6 hours, and finally progressed to the G2 phase after 8 hours. However, many of the compound 1-treated cells remained in the S phase at all time points. (Panel (C) of FIG. 2). A double thymidine block was performed and the data were collected at the indicated time points. Compared to DMSO, compound 1-treated H1975 cells required more time for the S phase (approximately 4 hours).

Data set [2] concerns Streptococcus infantarius subsp. infantarius. The data set is described as follows: MIC, broth micro dilution method. It is filed as cell-based. To be noted: strain ATCC BAA-102, S. bovis.
The target in another data set is T1, MCM2 (Homo sapiens, UniProt P49736).
T1 construct: The MCM2 proteins were pulled down by incubating the H1975 lysate with compound 1-conjugated magnetic beads; endogenous in cells; host or cells: H1975
Description: MCM2 ubiquitination (Myc-Ub transfection, MCM2 immunoprecipitation). Format: cell-based. To be noted: H1975 co-expressing Myc-Ub, 140 nM, 12 hours. As to the method:
To determine whether Compound 1 triggers MCM2 degradation through promoting MCM2 ubiquitination, Myc-tagged ubiquitin (Myc-Ub) was transfected into H1975 cells treated with or without compound 1 and followed by MCM2 immunoprecipitation. The cells were transiently transfected with pcDNA3-Myc-Ub and treated with or without 140 nM of compound 1 combined with MG132. After 12 hours, the cells were harvested and MCM2 proteins were precipitated with specific anti-MCM2 antibodies. The ubiqiuitination pattern were detected by immunoblotting. IgG served as the antibody control in the immunoprecipitation experiment.

A further data set deals with Enterococcus faecium. The data set is described as follows: MIC, broth micro dilution method. Format: cell-based.
For data set [3], the system named is Streptococcus infantarius subsp. coli. The data set is described as follows: MIC, broth micro dilution method. It is filed as cell-based. Conditions: strain ATCC BAA-103, S. bovis.
The next data set deals with Acinetobacter baumannii. The data set is described as follows: MIC, broth micro dilution method. Format: cell-based.
For data set [4], the system named is CL1-5 (human lung adenocarcinoma cells, EGFR wild type and resistant to gefitinib). The data set is described as follows: SRB cytotoxicity assay, CL1-5. Conditions: CL1-5, 72 h.
The test system of data set [5] is subcutaneous H1975 tumors. The data set is described as follows: H1975 xenograft tumor growth in athymic nude mice (compound 1). Format: in vivo. To be noted: for average tumor size: day 27. The protocol: Panel (A): The structure of compound 1. Panel(B): A chart showing exemplary results for the cytotoxicity assay of Compound 1-treated cancer cells for 72 hours. […] Panel (C): Photos showing the different tumor sizes and TUNEL assay results between DMSO control and Compound 1-treated mice. H1975 (3×10^6) cells were subcutaneously injected into male nu/nu mice, and daily treated intraperitoneally with Compound I at indicated dose or DMSO for 4 weeks. During the treatment, tumor size and body weights were measured every 3 to 4 days; and the histology was confirmed by H&E staining (left lower panel of panel (C).
Exemplary results are shown in Panel (C) of FIG. 1. […] (Panel (C) of FIG. 1). In addition, the body weight of the mice was calculated when the tumor size was measured. Serum was also collected, and biological analysis in vitro was performed. […] Inhibition of tumor growth of Compound 1 with low cytotoxicity in vivo was observed.

In another data set the test system is Escherichia coli. The data set is described as follows: MIC, broth micro dilution method. It is filed as cell-based.

T1 sequence (P49736 whole entry): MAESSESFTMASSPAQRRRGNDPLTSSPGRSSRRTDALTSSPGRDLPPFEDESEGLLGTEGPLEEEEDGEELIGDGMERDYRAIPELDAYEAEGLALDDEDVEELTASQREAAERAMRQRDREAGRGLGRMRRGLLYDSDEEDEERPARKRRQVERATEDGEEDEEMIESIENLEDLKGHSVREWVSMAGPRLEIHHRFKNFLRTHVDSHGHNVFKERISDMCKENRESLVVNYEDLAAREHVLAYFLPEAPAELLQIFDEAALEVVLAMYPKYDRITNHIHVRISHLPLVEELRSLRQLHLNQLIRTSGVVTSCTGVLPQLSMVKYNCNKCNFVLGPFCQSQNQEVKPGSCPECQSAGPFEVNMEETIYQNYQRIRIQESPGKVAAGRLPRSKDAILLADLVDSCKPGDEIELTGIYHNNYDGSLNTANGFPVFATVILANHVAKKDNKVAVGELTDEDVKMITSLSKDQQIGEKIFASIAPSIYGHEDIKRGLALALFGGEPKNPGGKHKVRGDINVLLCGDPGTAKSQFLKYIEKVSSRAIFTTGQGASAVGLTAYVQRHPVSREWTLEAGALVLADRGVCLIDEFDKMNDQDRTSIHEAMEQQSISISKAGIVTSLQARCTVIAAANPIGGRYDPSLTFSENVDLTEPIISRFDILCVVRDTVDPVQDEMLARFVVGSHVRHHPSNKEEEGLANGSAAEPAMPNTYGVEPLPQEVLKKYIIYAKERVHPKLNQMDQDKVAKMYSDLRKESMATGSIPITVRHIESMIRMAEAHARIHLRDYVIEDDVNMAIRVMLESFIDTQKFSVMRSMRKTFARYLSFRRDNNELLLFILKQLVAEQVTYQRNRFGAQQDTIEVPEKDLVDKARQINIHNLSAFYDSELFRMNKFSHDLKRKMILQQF

For the compound `Cc1oc2c(c1C(=O)NCCCn1ccnc1)C(=O)c1ccccc1C2=O` [Compound 1, N-(3-(1H-Imidazol-1-yl)propyl)-2-methyl-4,9-dioxo-4,9-dihydronaphtho [2,3-b]furan-3-carboxamide], the results for the concentration for half-maximal inhibition (IC50) in [1] and in [4] were 53 nM and 280 nM, respectively. For the same compound, the “more time required for the S phase compared to DMSO” value with H1975 cells is on record as “approximately 4 hours”. For the same compound, the MIC in [2] (read-out: MIC (μg/ml) 100%) came out at 8 µg/mL (≈ 22 µM); in data set [2] (read-out: MIC (μg/ml) 50%) it was 4 µg/mL (≈ 11 µM); with Enterococcus faecium (read-out: MIC (μg/ml) 100%, strain ATCC19434) it was 16 µg/mL (≈ 44 µM); with Enterococcus faecium (strain ATCC19434, read-out: MIC (μg/ml) 50%) it was 2 µg/mL (≈ 5.5 µM); in data set [3] (read-out: MIC (μg/ml) 100%), 4 µg/mL (≈ 11 µM); in [3] (read-out: MIC (μg/ml) 50%) it was 2 µg/mL (≈ 5.5 µM). Also, the MIC in the data set with Acinetobacter baumannii (read-out: MIC (μg/ml) 100%, strain ATCC19606, gram negative) is over 32 µg/mL; with Acinetobacter baumannii (strain ATCC19606, gram negative, read-out: MIC (μg/ml) 50%), over 32 µg/mL; in the data set on Escherichia coli (read-out: MIC (μg/ml) 100%, strain ATCC33625, gram negative), over 32 µg/mL; with Escherichia coli (strain ATCC33625, gram negative, read-out: MIC (μg/ml) 50%) it was over 32 µg/mL. Moreover, at MCM2, the “Ubiquitylated MCM2” value is reported as “detected in treated cells”. For the same compound, the results for the average tumor size in data set [5] (1 mg/kg daily intraperitoneal) and in data set [5] (4 mg/kg daily intraperitoneal) were 701.2±196.5 mm^3 and 518.0±93.0 mm^3, respectively. Moreover, the “body weight and serum biological analysis, control group vs compound treatment group” value in data set [5] (1 mg/kg or 4 mg/kg daily intraperitoneal, 4 weeks) is recorded as “Few differences”.
